Measurements from US7868026B2, “Therapeutic compounds” (Pfizer Inc., priority 2005, dated 2011).
Where two headings read alike, the source gives them in different places.

Tests used:
Assay type in all cases: biochemical
[1] = target: T1, CYP3A4 (Homo sapiens, UniProt P08684); assay: Determination of compound Kiapp against recombinant CYP3A4 enzyme (BFC fluorescent substrate)
How it was run: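 Kiapp derived from initial velocities over the first 5 min of BFC (5 uM) oxidation, using Morrison's tight-binding equation for non-partial and Szedlacsek's for partial inhibitors. Inhibitor first pre-incubated ≥30 min with CYP3A4 (5.5 or 8 nM, ±b5) in pH 7.0 phosphate/TCEP/2% DMF at room temperature; 200 uM NADPH initiated.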

[2] = target: T1, CYP3A4; assay: Determination of IC50 against CYP3A4 by measurement of inhibition of testosterone metabolism (human liver microsomes, 6-β-OH-testosterone by LC-MS/MS); set-up: 0.1 mg/mL human liver microsomes; conditions: read-out: IC50 (Testo.)
How it was run: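 6-β-OH-testosterone formation was read by LC-MS/MS (MRM, internal standard, standard curve) after eight minutes. Reaction contained testosterone 25 μM, NADPH 1 mM and microsomal protein 0.1 mg/mL in pH 7.4 potassium phosphate (100 mM).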

[3] = target: T1, CYP3A4; assay: Determination of IC50 against CYP3A4 by measurement of inhibition of midazolam metabolism (human liver microsomes, 1-hydroxymidazolam by LC-MS/MS); set-up: 0.1 mg/mL human liver microsomes; conditions: 2 μM midazolam, 0.1 mg/mL human liver microsomes
How it was run: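 Human liver microsomes (0.1 mg/mL) incubated 8 min with 2 μM midazolam and 1 mM NADPH in 100 mM potassium phosphate, pH 7.4. 1-Hydroxymidazolam quantified by LC-MS/MS (MRM) as peak area ratio to internal standard against a metabolite standard curve.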

[4] = Baculo. enzyme preparation, read-out: Kiapp (BFC, Baculo.)
[5] = Super. enzyme preparation, read-out: Kiapp (BFC, Super.)

T1 sequence (P08684 whole entry): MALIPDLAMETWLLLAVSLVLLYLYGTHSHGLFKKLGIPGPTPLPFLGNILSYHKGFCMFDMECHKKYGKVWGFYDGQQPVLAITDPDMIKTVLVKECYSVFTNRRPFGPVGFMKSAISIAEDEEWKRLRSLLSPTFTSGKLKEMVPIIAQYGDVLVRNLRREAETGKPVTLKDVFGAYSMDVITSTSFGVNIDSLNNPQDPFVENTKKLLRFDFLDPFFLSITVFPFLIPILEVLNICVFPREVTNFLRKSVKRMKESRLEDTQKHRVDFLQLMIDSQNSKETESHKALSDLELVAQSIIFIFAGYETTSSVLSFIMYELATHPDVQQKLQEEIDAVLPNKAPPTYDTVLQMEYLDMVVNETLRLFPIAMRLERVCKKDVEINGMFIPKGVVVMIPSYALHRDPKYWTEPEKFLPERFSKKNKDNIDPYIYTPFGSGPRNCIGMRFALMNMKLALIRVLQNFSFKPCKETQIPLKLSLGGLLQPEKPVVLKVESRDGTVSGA

| Ki [1, 4] [nM] | Ki [1, 5] [nM] | IC50 [2] [nM] | IC50 [3] [nM] | SMILES |
| --- | --- | --- | --- | --- |
| > 1000 | 120 | 161 | 53 | CCOCCNC(=O)c1ccccc1S(=O)(=O)Nc1cncc(C)c1 [Example 228, N-(2-ethoxyethyl)-2-{[(5-methylpyridin-3-yl)amino]sulfonyl}benzamide] |
| 203 | 24.3 | 37 | 16 | Cc1cncc(NS(=O)(=O)c2ccccc2C(=O)NCCOc2ccccc2)c1 [Example 229, 2-{[(5-methylpyridin-3-yl)amino]sulfonyl}-N-(2-phenoxyethyl)benzamide] |
| 373 | 78.4 | 87 | 42 | CCCCN(C)C(=O)c1ccccc1S(=O)(=O)Nc1cnccc1C [Example 230, N-butyl-N-methyl-2-{[(4-methylpyridin-3-yl)amino]sulfonyl}benzamide] |
| 59.1 | 8.9 | 31 | 20 | COc1cncc(NS(=O)(=O)c2ccccc2C(=O)N2CCC(c3ccccc3)CC2)c1 [Example 231, N-(5-methoxypyridin-3-yl)-2-[(4-phenylpiperidin-1-yl)carbonyl]benzenesulfonamide] |
| 99.4 | 11.5 | 32 | 28 | COc1cncc(NS(=O)(=O)c2ccccc2C(=O)N[C@H]2C[C@@H]2c2ccccc2)c1 [Example 232, 2-{[(5-methoxypyridin-3-yl)amino]sulfonyl}-N-[(1S2R)-2-phenylcyclopropyl]benzamide] |
| > 1000 | 182 | 195 | 67 | COc1cncc(NS(=O)(=O)c2ccccc2C(=O)NCc2ccc(S(C)(=O)=O)cc2)c1 [Example 233, 2-{[(5-methoxypyridin-3-yl)amino]sulfonyl}-N-[4-(methylsulfonyl)benzyl]benzamide] |
| 37.9 | 8.1 | > 750 | > 750 | COc1cncc(NS(=O)(=O)c2ccccc2C(=O)NCCCc2ccccc2OC)c1 [Example 234, N-[3-(2-methoxyphenyl)propyl]-2-{[(5-methoxypyridin-3-yl)amino]sulfonyl}benzamide] |
| 107 | 8.7 | 19 | 10 | COc1cncc(NS(=O)(=O)c2ccccc2C(=O)NCCCc2ccccc2)c1 [Example 235, 2-{[(5-methoxypyridin-3-yl)amino]sulfonyl}-N-(3-phenylpropyl)benzamide] |
| > 1000 | 142 | 223 | 132 | COCCCNC(=O)c1ccccc1S(=O)(=O)Nc1cncc(OC)c1 [Example 236, N-(3-methoxypropyl)-2-{[(5-methoxypyridin-3-yl)amino]sulfonyl}benzamide] |
| 979 | 142 | 215 | 125 | CCOCCNC(=O)c1ccccc1S(=O)(=O)Nc1cncc(OC)c1 [Example 237, N-(2-ethoxyethyl)-2-{[(5-methoxypyridin-3-yl)amino]sulfonyl}benzamide] |
| 230 | 18 | 31 | 17 | COc1cncc(NS(=O)(=O)c2ccccc2C(=O)NCCOc2ccccc2)c1 [Example 238, 2-{[(5-methoxypyridin-3-yl)amino]sulfonyl}-N-(2-phenoxyethyl)benzamide] |
| 849 | 191 | 301 | 163 | COCCNC(=O)c1ccccc1S(=O)(=O)Nc1cncc(OC)c1 [Example 239, N-(2-methoxyethyl)-2-{[(5-methoxypyridin-3-yl)amino]sulfonyl}benzamide] |
| 22 | 3.2 | 9 | 4 | COc1cncc(NS(=O)(=O)c2ccccc2C(=O)NCCc2ccccc2Cl)c1 [Example 240, N-[2-(2-chlorophenyl)ethyl]-2-{[(5-methoxypyridin-3-yl)amino]sulfonyl}benzamide] |
| 751 | 97 | 150 | 77 | COc1cncc(NS(=O)(=O)c2ccccc2C(=O)NCCOC(C)C)c1 [Example 241, N-(2-isopropoxyethyl)-2-{[(5-methoxypyridin-3-yl)amino]sulfonyl}benzamide] |
| 246 | 200 | 289 | 254 | COc1cncc(NS(=O)(=O)c2ccc(OCCN3CCNCC3)cc2C(=O)N(C)C(C)C)c1 [Example 242, N-isopropyl-2-{[(5-methoxypyridin-3-yl)amino]sulfonyl}-N-methyl-5-(2-piperazin-1-ylethoxy)benzamide] |
| 28.4 | 85.8 | 264 | 69 | COc1cncc(NS(=O)(=O)c2ccc(OC3CCNCC3)cc2C(=O)N(C)C(C)C)c1 [Example 243, N-isopropyl-2-{[(5-methoxypyridin-3-yl)amino]sulfonyl}-N-methyl-5-(piperidin-4-yloxy)benzamide] |
| 45.6 | 26.8 | 52 | < 16 | COCCN(C(=O)c1ccccc1S(=O)(=O)Nc1cncc(OC)c1)C(C)C [Example 244, N-isopropyl-N-(2-methoxyethyl)-2-{[(5-methoxypyridin-3-yl)amino]sulfonyl}benzamide] |
| 164 | 18.7 | 63 | 29 | CCCN(C)C(=O)c1ccccc1S(=O)(=O)Nc1cncc(OC)c1 [Example 245, 2-{[(5-methoxypyridin-3-yl)amino]sulfonyl}-N-methyl-N-propylbenzamide] |
| 50.3 | 18.5 | 72 | 36 | CCCN(CCOC)C(=O)c1ccccc1S(=O)(=O)Nc1cncc(OC)c1 [Example 246, N-(2-methoxyethyl)-2-{[(5-methoxypyridin-3-yl)amino]sulfonyl}-N-propylbenzamide] |
| 48.4 | 88.9 | 108 | 54 | COc1cncc(NS(=O)(=O)c2ccc(OCCN3CCOCC3)cc2C(=O)N(C)C(C)C)c1 [Example 247, N-isopropyl-2-{[(5-methoxypyridin-3-yl)amino]sulfonyl}-N-methyl-5-(2-morpholin-4-ylethoxy)benzamide] |
| 439 | 193 | 235 | 108 | COc1cncc(NS(=O)(=O)c2ccc(OCCCN(C)C)cc2C(=O)N(C)C(C)C)c1 [Example 248, 5-[3-(dimethylamino)propoxy]-N-isopropyl-2-{[(5-methoxypyridin-3-yl)amino]sulfonyl}-N-methylbenzamide] |
| 60.1 | 37.7 | 45 | 28.5 | CCOc1ccncc1NS(=O)(=O)c1ccccc1C(=O)NC(C)(C)C [Example 249, N-(tert-butyl)-2-{[(4-ethoxy-pyridin-3-yl)amino]sulfonyl} benzamide] |
| 4.3 | 3.14 | 7 | 10 | CCOc1ccncc1NS(=O)(=O)c1ccccc1C(=O)NCc1ccc(F)c(C(F)(F)F)c1 [Example 250, 2-{[(4-ethoxypyridin-3-yl)amino]sulfonyl}-N-[4-fluoro-3-(trifluoromethyl)benzyl]benzamide] |
| 8.6 | 5.31 | 12 | 10 | CCOc1ccncc1NS(=O)(=O)c1ccccc1C(=O)N(C)Cc1ccc(F)c(F)c1 [Example 251, N-(3,4-difluorobenzyl)-2-{[(4-ethoxypyridin-3-yl)amino]sulfonyl}-N-methylbenzamide] |
| 17.1 | 5.41 | 9 | 9 | CCOc1ccncc1NS(=O)(=O)c1ccccc1C(=O)NCc1ccc(F)c(F)c1 [Example 252, N-(3,4-difluorobenzyl)-2-{[(4-ethoxypyridin-3-yl)amino]sulfonyl}benzamide] |
| 203 | 35.2 | 80 | 50 | COc1cncc(NS(=O)(=O)c2ccc(OCCN3CCNCC3)cc2C(=O)NCc2ccc(F)cc2)c1 [Example 253, N-(4-fluorobenzyl)-2-{[(5-methoxypyridin-3-yl)amino]sulfonyl}-5-(2-piperazin-1-ylethoxy)benzamide] |
| 284 | 122 | 120 | 40 | COc1ccncc1NS(=O)(=O)c1ccccc1C(=O)NC(C)(C)C [Example 254, N-(tert-butyl)-2-{[(4-methoxypyridin-3-yl)amino]sulfonyl}benzamide] |
| 22.7 | 4.06 | 9 | 7 | COc1ccncc1NS(=O)(=O)c1ccccc1C(=O)NCc1ccc(F)c(C(F)(F)F)c1 [Example 255, N-[4-fluoro-3-(trifluoromethyl)benzyl]-2-{[(4-methoxypyridin-3-yl)amino]sulfonyl}benzamide] |
| 30.2 | 5.25 | 16 | 14.5 | COc1ccncc1NS(=O)(=O)c1ccccc1C(=O)N(C)Cc1ccc(F)c(F)c1 [Example 256, N-(3,4-difluorobenzyl)-2-{[(4-methoxypyridin-3-yl)amino]sulfonyl}-N-methylbenzamide] |
